From patent US5264433A, “Benzodiazepine derivatives” (Fujisawa Pharmaceutical Co., Ltd., priority 1988, dated 1993)

Key:
CCK receptor = CCK receptor antagonism in isolated fundic circular muscle from guinea pig stomach; conditions: test compound 1×10^-5 M added 5 minutes before CCK-8 (3.2×10^-7 M); isolated circular muscle strip
Method: CCK receptor antagonism in isolated fundic circular muscle from guinea pig stomach
The strip of circular muscle suspended in 25 ml organ bath containing Kreb's bicarbonate solution (NaCl 118 mM, KCl 4.8 mM, KH2 PO4 1.2 mM, MgSO4 1.2 mM, CaCl2 2.5 mM, NaHCO3 25 mM, glucose 11 mM and bovine serum albumin 0.1%) maintained at 37° C. and gassed with 95% O2 and 5% CO2.
The strip was placed under an initial tension of 0.5 g and equilibrated for 60 minutes during which the bath volume was replaced every 15 minutes. Isometric contraction was measured using a force transducer. CCK-8 (3.2×10^-7 M) was added to the bathing solution and the contractile force was measured. After washing out CCK-8, test compound A (1×10^-5 M) was added. 5 minutes later, CCK-8 was added and the contractile force was measured. CCK antagonism was calculated by comparing the contractile force induced by CCK in the absence or presence of test compound A.

CCK-A receptor = CCK-A receptor antagonist selectivity (statement only, no method); conditions: statement in words, no data

Compound | Inhibition (%) of CCK-induced contractile force (CCK receptor) [%] | CCK-A receptor antagonist selectivity (CCK-A receptor)
O=C(NC1N=C(c2ccccc2)c2ccccc2N(CCO)C1=O)c1cc2ccccc2[nH]1 (racemic) [test compound A, (3RS)-1,3-Dihydro-1-(2-hydroxyethyl)-3-(2-indolylcarbonylamino)-5-phenyl-2H-1,4-benzodiazepine-2-one] | 91 | 
O=C(N[C@H]1N=C(c2ccccc2)c2ccccc2N(Cc2nnn[nH]2)C1=O)c1cc2ccccc2[nH]1 [Example 42, (3S)-1,3-dihydro-3-(2-indolylcarbonylamino)-5-phenyl-1-[(1 H-tetrazol-5-yl)-methyl]-2H-1,4-benzodiazepin-2-one] |  | selective CCK-A receptor antagonist
